Data on five substances can be found in patent US7713934B2, “Thrombin peptide derivatives” (The Board of Regents, The University of Texas System, priority 2002, dated 2010).

Series [1] has as its system thrombin receptors. Briefly: Peptide competition for [125I]-alpha-thrombin binding to ME cells. The settings on record: for Concentration Required for 30% Inhibition: [125I]-alpha-thrombin binding to ME cells; for fold higher concentration than p508-530 required for 30% inhibition of [125I]-alpha-thrombin binding: relative to p508-530. From the text: Thrombin peptide derivatives are believed to activate cells by binding to a high-affinity cell-surface thrombin receptor known as the non-proteolytically-activated thrombin receptor (hereinafter “NPAR”) (R. Horvat, et. al., J. Cell Sci. 108, 1155-1164 1995). Compounds which stimulate NPAR are said to be thrombin receptor agonists. NPAR activation can be assayed based on the ability of molecules to stimulate cell proliferation when added to fibroblasts in the presence of submitogenic concentrations of thrombin or molecules that activate protein kinase C or compete with ^125I-thrombin for high affinity binding17 to thrombin receptors, as disclosed in U.S. Pat. Nos. 5,352,664 and 5,500,412 and in Glenn et al., J. Peptide Research 1:65 (1988).
To further identify regions of thrombin involved in high-affinity binding and generation of mitogenic signals, two peptides representing specific domains within p508-530 were tested. The first peptide represented residues 519 to 530 of the B-chain region of human prothrombin, a region of thrombin that is highly conserved among serine proteases. The second peptide represented residues 517 to 520 of prothrombin, a region of thrombin homologous to the fibronectin cell binding domain.
Because p517-520 is homologous to the fibronectin cell binding domain, a peptide having the sequence Arg-Gly-[…]-Ser (SEQ ID NO:18; the sequence of the fibronectin specific peptide) was also tested for its ability to compete for [^125I]-alpha-thrombin binding.

Series [2] concerns NIL cells. Particulars: increasing concentrations, quiescent NIL cells, 2 and 4 nM alpha-thrombin; FIG. 6 of U.S. Pat. No. 5,500,412; cited from earlier work.
Series [3] in a line: Dimer formation / stability in saline solution by HPLC. It counts as physicochemical. Particulars: 5 mg/mL, 4° C. An excerpt: Over a time period of 6 months, triplicate samples were taken at intervals from the solution.
The area percent of each HPLC peak was plotted in FIG. 3. The peak area percent corresponds directly to the percent of material in solution.
Over a time period of 1 month, triplicate samples were taken at intervals from the solution. […] The area percent of each HPLC peak was plotted in FIG. 4. The peak area percent corresponds directly to the percent of material in solution.
Over a time period of 1 month, triplicate samples were taken at intervals from the solution. […] The area percent of each HPLC peak was plotted in FIG. 5. The peak area percent corresponds directly to the percent of material in solution.

Series [4] deals with full-thickness, 2 cm-diameter excisions on the dorsum. The series is described as follows: Wound closure, full-thickness excisions in rats (Example 1, TP508-Ala). The class given is in vivo, male Sprague-Dawley rats. The settings on record: for wound area smaller than controls: 0.1 μg per wound, topical; for wound healing activity compared with TP508: Example 1, 0.1 μg per wound. The protocol: (§1) Two, full-thickness, 2 cm-diameter excisions were created on the dorsum of male Sprague-Dawley rats. […] Wound size was determined on post-wounding days 3, 7, and 10 by tracing the perimeter of the wound onto an acetate sheet and using digital analysis to compute the surface area of each wound.
Each group contained 6 rats.
(§2) Saline was used as the vehicle for the experiment. […] The working solution was maintained on ice throughout the experiment.
(§3) The working solution was maintained on ice throughout the experiment.
(§4) On post-wounding days 3, 7, and 10, the wounds were evaluated by tracing the wound perimeter onto a flexible acetate sheet, then determining wound area with digital analysis software.
Each data point represents the mean and standard error of the mean of 12 wounds from 6 rats. Statistical comparisons between groups were made using a repeated measures analysis of variance; Fisher's LSD was used for post hoc testing between groups.

Series [5] has the same test system. Briefly: Wound closure, full-thickness excisions in rats (Example 2, TP508-Ser). The settings on record: for wound area reduced: 0.1 μg per wound, topical; for wound healing activity compared with TP508: Example 2, 0.1 μg per wound. It counts as in vivo, male Sprague-Dawley rats. The protocol:
as §1
Each group contained 8 rats.
as §2, §3, §4
Each data point represents the mean and standard error of the mean of 16 wounds from 8 rats. Statistical comparisons between groups were made using a repeated measures analysis of variance; Fisher's LSD was used for post hoc testing between groups.

Consider “DACEGDSGGPFV (Thrombin Peptide Derivative) [p519-530]”, for which, in series [1], the “Concentration Required for 30% Inhibition” value came to 200 nM and the “fold higher concentration than p508-530 required for 30% inhibition of [125I]-alpha-thrombin binding” value was found to be 33 fold. Besides, in series [1] (at 800 nM, ME cells), the “Maximal % Inhibition” value is 51%. The “effect on DNA synthesis” value in series [2] was “enhanced DNA synthesis”.

As to “H-Ala-Gly-Tyr-Lys-Pro-Asp-Glu-Gly-Lys-Arg -Gly-Asp-Ala-Ala-Glu-Gly-Asp-Ser-Gly-Gly-Pro-Phe-Val-NH2 (H-AGYKPDEGKRGDAAEGDSGGPFV-NH2) [TP508-Ala]”, the “HPLC peak area of monomer / peptide over time” value in series [3] (1 month) is on record as “no decrease over time”. Moreover, the conversion to dimer entry is “does not convert to dimer” in series [3] (1 month) and “no dimerization” in series [3] (6 months). The “wound area smaller than controls” value in series [4] (post-wounding Day 7) stood at 18.7%; in series [4] (post-wounding Day 10), 25.1%. Also, the “wound healing activity compared with TP508” value in series [4] was “equivalent to TP508 in efficacy and potency”; in series [4] (listed as TP508 Cys→Ala), “about the same level of activity toward the thrombin receptor as TP508”.

Take RGDA (Thrombin Peptide) [p517-520]: in series [1], the “Concentration Required for 30% Inhibition” value is given as 300 nM and the “fold higher concentration than p508-530 required for 30% inhibition of [125I]-alpha-thrombin binding” value was 50 fold. In addition, the “effect on DNA synthesis” value in series [2] is given as “inhibited DNA synthesis”.

As to “Arg-Gly-Ala-Ser (RGAS; Fibronectin Specific Peptide)”, the “competition with [125I]-alpha-thrombin for binding” value in series [1] (at a concentration of 1.3 μM) is listed as “did not compete”.

Consider “H-Ala-Gly-Tyr-Lys-Pro-Asp-Glu-Gly -Lys-Arg-Gly-Asp-Ala-Ser-Glu-Gly-Asp-Ser-Gly-Gly-Pro-Phe-Val-NH2 (H-AGYKPDEGKRGDASEGDSGGPFV-NH2) [TP508-Ser]”, for which the wound area reduced is listed as 18.2% in series [5] (post-wounding Day 7) and 43.3% in series [5] (post-wounding Day 10). For the same substance, the “wound healing activity compared with TP508” value was “equivalent to TP508 in efficacy and potency” in series [5]; “about the same level of activity toward the thrombin receptor as TP508” in series [5] (listed as TP508 Cys→Ser).
